Structures are written as SMILES. Read-outs that look alike come from different tables or passages of the source.

Series [1] in a line: In vitro plasma protein binding (PPB). Type of series: in vitro ADME. Conditions: percentage of free/unbound compound.
The subject of series [2] is NCI-H1975 cells (EGFR T790M L858R). As to the kind of experiment: EGFR-SOS cellular inhibition assay (CellTiter-Glo, 3D). Type of series: cell-based. The note with it: Homo sapiens.
Another series deals with SOS1 (Homo sapiens (Human), UniProt Q07889). Description: Ras-SOS interaction assay (HTRF). The series is classed as biochemical.
SOS1, sequence (Q07889 564-1049): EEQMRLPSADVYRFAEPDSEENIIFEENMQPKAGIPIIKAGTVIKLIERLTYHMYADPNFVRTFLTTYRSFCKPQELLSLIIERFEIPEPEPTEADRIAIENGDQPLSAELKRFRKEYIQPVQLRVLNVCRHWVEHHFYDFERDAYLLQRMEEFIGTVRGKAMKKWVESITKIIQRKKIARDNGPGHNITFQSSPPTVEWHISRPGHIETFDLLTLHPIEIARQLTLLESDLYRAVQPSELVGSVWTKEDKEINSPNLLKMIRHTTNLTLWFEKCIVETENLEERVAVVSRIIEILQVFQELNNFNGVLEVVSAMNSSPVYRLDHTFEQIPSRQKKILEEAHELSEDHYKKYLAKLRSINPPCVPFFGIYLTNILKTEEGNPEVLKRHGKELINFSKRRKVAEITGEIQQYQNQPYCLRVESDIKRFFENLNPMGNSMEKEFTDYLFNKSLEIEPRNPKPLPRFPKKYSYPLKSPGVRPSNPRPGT
Series [3] has as its system MIA PaCa-2 cells (K-Ras G12C). As to the kind of experiment: Ras-SOS cellular growth inhibition assay (CellTiter-Glo, 3D). The series is classed as cell-based. Conditions: Homo sapiens. Summed up:
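Growth read by CellTiter-Glo luminescence about 5 days after dosing with 3-fold dilutions (9 points), added one day post-seeding. Cells: MIA PaCa-2, 3D culture on ultra-low-attachment surface, medium DMEM/Ham's F12 plus 10% FCS and 2.5% horse serum; IC50 by four-parameter fit.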

Setting [4] is: 120 h, NCI-H1975, 3D proliferation, about 5 days, read-out: Bio-Cell-Prolif-3D (H1975 IC50).
Setting [5] is: NCI-H1975, EGFR T790M L858R, read-out: IC50 in inhibiting growth of NCI-H1975 cell line.
Where [6] appears, read: K-RasG13D utilized, read-out: IC50 inhibition of SOS.
Setting [7] is: K-RasG13D, read-out: IC50 value against SOS1.
[8] abbreviates: MIA PaCa-2, 120 h, MIA PaCa-2, 3D proliferation, about 5 days, read-out: Bio-Cell-Prolif-3D (MiaPaca2 IC50).
The mark [9] stands for this setting: MIA PaCa-2, MIA PaCa-2, read-out: IC50 in inhibiting MIA PaCa-2 cell growth.

As to `COc1nc2ncnc(N[C@H](C)c3cccc(C(F)(F)F)c3F)c2cc1C1CCS(=O)(=O)CC1` [Compound 375, (R)-4-(4-((1-(2-fluoro-3-(trifluoromethyl)phenyl)ethyl)amino)-7-methoxypyrido[2,3-d]pyrimidin-6-yl)tetrahydro-2H-thiopyran 1,1-dioxide], the “DMPK-invitro-PPB (Mouse Unbound) [%]” value in series [1] came to 2.67%. The IC50 in series [2] (setting [4]) is at most 1000 nM; in series [2] (setting [5]), under 500 nM; on SOS1 (setting [6]), under 100 nM; at SOS1 (setting [7]), under 50 nM; in series [3] (setting [8]), at most 1000 nM; in series [3] (setting [9]), under 500 nM.
For `COc1nc2ncnc(N[C@H](C)c3cccc(C(F)(F)F)c3F)c2cc1N1CCN(C(C)C)CC1` [Compound 159, (R)-N-(1-(2-fluoro-3-(trifluoromethyl)phenyl)ethyl)-6-(4-isopropylpiperazin-1-yl)-7-methoxypyrido[2,3-d] pyrimidin-4-amine], the “DMPK-invitro-PPB (Mouse Unbound) [%]” value in series [1] is 3.43%. Further, the IC50 in series [2] (setting [4]) is at most 1000 nM; in series [2] (setting [5]) it was under 500 nM; on SOS1 (setting [6]) it was under 100 nM; on SOS1 (setting [7]), under 50 nM; in series [3] (setting [8]), at most 1000 nM; in series [3] (setting [9]), under 500 nM.
For the compound `COc1nc2ncnc(N[C@H](C)c3cccc(C(F)(F)F)c3C)c2cc1C1CCN(C(C)C)CC1` [Compound 348, (R)-6-(1-isopropylpiperidin-4-yl)-7-methoxy-N-(1-(2-methyl-3-(trifluoromethyl)phenyl)ethyl)pyrido [2,3-d]pyrimidin-4-amine], the “DMPK-invitro-PPB (Mouse Unbound) [%]” value in series [1] was found to be 1.03%. For the same compound, the IC50 in series [2] (setting [4]) was at most 1000 nM; in series [2] (setting [5]), under 500 nM; on SOS1 (setting [6]) it was under 100 nM; on SOS1 (setting [7]), under 50 nM; in series [3] (setting [8]), at most 1000 nM.
In the case of `COc1nc2nc(C)nc(N[C@H](C)c3cccc(C(F)(F)C(C)(C)O)c3F)c2cc1N1CCN(C(C)C)CC1` [Compound 322, (R)-1,1-difluoro-1-(2-fluoro-3-(1-((6-(4-isopropylpiperazin-1-yl)-7-methoxy-2-methylpyrido[2,3-d]pyrimidin-4-yl)amino)ethyl)phenyl)-2-methylpropan-2-ol], the “DMPK-invitro-PPB (Mouse Unbound) [%]” value in series [1] is 6.33%. In addition, the IC50 is at most 1000 nM in series [2] (setting [4]); under 500 nM in series [2] (setting [5]); under 100 nM on SOS1 (setting [6]); under 50 nM on SOS1 (setting [7]); at most 1000 nM in series [3] (setting [8]); under 500 nM in series [3] (setting [9]).
As for `COc1nc2ncnc(N[C@H](C)c3cccc(C(F)F)c3F)c2cc1N1CCS(=O)(=O)CC1` [Compound 339, (R)-4-(4-((1-(3-(difluoromethyl)-2-fluorophenyl)ethyl)amino)-7-methoxypyrido[2,3-d]pyrimidin-6-yl)thiomorpholine 1,1-dioxide], the “DMPK-invitro-PPB (Mouse Unbound) [%]” value in series [1] was determined as 15.32%. For the same compound, the IC50 in series [2] (setting [4]) is at most 1000 nM; in series [2] (setting [5]), under 500 nM; at SOS1 (setting [6]), under 100 nM; on SOS1 (setting [7]), under 50 nM; in series [3] (setting [8]), at most 1000 nM.
As for `COc1nc2nc(C)nc(N[C@H](C)c3cccc(C(F)(F)F)c3C)c2cc1C1CCN(C2CCOCC2)CC1` [Compound 358, (R)-7-methoxy-2-methyl-N-(1-(2-methyl-3-(trifluoromethyl)phenyl)ethyl)-6-(1-(tetrahydro-2H-pyran-4-yl)piperidin-4-yl)pyrido [2,3-d]pyrimidin-4-amine], the “DMPK-invitro-PPB (Mouse Unbound) [%]” value in series [1] is on record as 0.065%. The IC50 at SOS1 (setting [6]) was under 100 nM; on SOS1 (setting [7]) it was under 50 nM.
For the compound `COc1nc2nc(C)nc(N[C@H](C)c3cccc(C(C)(F)F)c3F)c2cc1C1CCS(=O)(=O)CC1` [Compound 150, (R)-4-(4-((1-(3-(1,1-difluoroethyl)-2-fluorophenyl)ethyl)amino)-7-methoxy-2-methylpyrido[2,3-d]pyrimidin-6-yl)tetrahydro-2H-thiopyran 1,1-dioxide], in series [1], the “DMPK-invitro-PPB (Mouse Unbound) [%]” value is listed as 2.65%. In addition, the IC50 in series [2] (setting [4]) is at most 1000 nM; in series [2] (setting [5]), under 500 nM; on SOS1 (setting [7]) it was under 50 nM; in series [3] (setting [8]) it was at most 1000 nM; in series [3] (setting [9]) it was under 500 nM.
On to `COc1nc2nc(C)nc(N[C@H](C)c3cccc(C(F)(F)C(C)(C)O)c3)c2cc1N1CCN(C(C)C)CC1` [Compound 325, (R)-1,1-difluoro-1-(3-(1-((6-(4-isopropylpiperazin-1-yl)-7-methoxy-2-methylpyrido[2,3-d]pyrimidin-4-yl)amino)ethyl)phenyl)-2-methylpropan-2-ol], for which, in series [1], the “DMPK-invitro-PPB (Mouse Unbound) [%]” value was determined as 12.8%. The IC50 in series [2] (setting [4]) is at most 1000 nM; in series [2] (setting [5]), under 500 nM; on SOS1 (setting [6]), under 100 nM; on SOS1 (setting [7]), under 50 nM; in series [3] (setting [8]), at most 1000 nM; in series [3] (setting [9]), under 500 nM.
Regarding `COc1nc2nc(C)nc(N[C@H](C)c3cccc(C(F)(F)F)c3F)c2cc1C1CCN(C2CCOCC2)CC1` [Compound 344, (R)-N-(1-(2-fluoro-3-(trifluoromethyl)phenyl)ethyl)-7-methoxy-2-methyl-6-(1-(tetrahydro-2H-pyran-4-yl)piperidin-4-yl)pyrido[2,3-d]pyrimidin-4-amine], the “DMPK-invitro-PPB (Mouse Unbound) [%]” value in series [1] turned out to be 0.29%. The values for the IC50 on SOS1 (setting [6]) and on SOS1 (setting [7]) were under 100 nM and under 50 nM, respectively.
Consider `COc1nc2nc(C)nc(N[C@H](C)c3cccc(C(F)(F)F)c3C)c2cc1C1CCN(C(C)C)CC1` [Compound 236, (R)-6-(1-isopropylpiperidin-4-yl)-7-methoxy-2-methyl-N-(1-(2-methyl-3-(trifluoromethyl)phenyl)ethyl)pyrido [2,3-d]pyrimidin-4-amine], for which the “DMPK-invitro-PPB (Mouse Unbound) [%]” value in series [1] was 0.11%. The IC50 is at most 1000 nM in series [2] (setting [4]); under 500 nM in series [2] (setting [5]); under 100 nM at SOS1 (setting [6]); under 50 nM on SOS1 (setting [7]); at most 1000 nM in series [3] (setting [8]); under 500 nM in series [3] (setting [9]).
With `COc1nc2nc(C)nc(N[C@H](C)c3cccc(C(F)(F)F)c3F)c2cc1N1CCN(C(C)C)CC1` [Compound 211, (R)-N-(1-(2-fluoro-3-(trifluoromethyl)phenyl)ethyl)-6-(4-isopropylpiperazin-1-yl)-7-methoxy-2-methylpyrido[2,3-d]pyrimidin-4-amine], in series [1], the “DMPK-invitro-PPB (Mouse Unbound) [%]” value turned out to be 0.41%. Further, the IC50 in series [2] (setting [4]) was at most 1000 nM; in series [2] (setting [5]), under 500 nM; at SOS1 (setting [6]), under 100 nM; on SOS1 (setting [7]), under 50 nM; in series [3] (setting [8]), at most 1000 nM; in series [3] (setting [9]), under 500 nM.
On to `COc1nc2ncnc(N[C@H](C)c3cccc(C(F)(F)F)c3C)c2cc1C1CCN(C2CCOCC2)CC1` [Compound 374, (R)-7-methoxy-N-(1-(2-methyl-3-(trifluoromethyl)phenyl)ethyl)-6-(1-(tetrahydro-2H-pyran-4-yl)piperidin-4-yl)pyrido[2,3-d]pyrimidin-4-amine], for which the “DMPK-invitro-PPB (Mouse Unbound) [%]” value in series [1] is on record as 0.45%. Further, the IC50 in series [2] (setting [4]) is at most 1000 nM; in series [2] (setting [5]), under 500 nM; on SOS1 (setting [7]), under 50 nM; in series [3] (setting [8]), at most 1000 nM; in series [3] (setting [9]), under 500 nM.
`COc1nc2nc(C)nc(N[C@H](C)c3cccc(C(F)F)c3F)c2cc1N1CCN(C)CC1` [Compound 103, (R)—N-(1-(3-(difluoromethyl)-2-fluorophenyl)ethyl)-7-methoxy-2-methyl-6-(4-methylpiperazin-1-yl)pyrido[2,3-d]pyrimidin-4-amine]: the “DMPK-invitro-PPB (Mouse Unbound) [%]” value in series [1] was 5.15%. Besides, the IC50 is under 500 nM in series [2] (setting [5]) and under 100 nM on SOS1 (setting [6]).
For `C[C@@H](Nc1ncnc2nc(Cl)c(C3CCS(=O)(=O)CC3)cc12)c1cccc(C(F)F)c1F` [Compound 393, (R)-4-(7-chloro-4-((1-(3-(difluoromethyl)-2-fluorophenyl)ethyl)amino)pyrido [2,3-d]pyrimidin-6-yl)tetrahydro-2H-thiopyran 1,1-dioxide], the IC50 in series [2] (setting [4]) was at most 1000 nM; in series [2] (setting [5]) it was under 500 nM; on SOS1 (setting [6]), under 100 nM; at SOS1 (setting [7]), under 50 nM; in series [3] (setting [8]), at most 1000 nM; in series [3] (setting [9]), under 500 nM.
In the case of `COc1nc2ncnc(N[C@H](C)c3cccc(C(F)F)c3F)c2cc1C1CCS(=O)(=O)CC1` [Compound 315, (R)-4-(4-((1-(3-(difluoromethyl)-2-fluorophenyl)ethyl)amino)-7-methoxypyrido[2,3-d]pyrimidin-6-yl)tetrahydro-2H-thiopyran 1,1-dioxide], the IC50 in series [2] (setting [4]) was at most 1000 nM; in series [2] (setting [5]), under 500 nM; at SOS1 (setting [6]) it was under 100 nM; in series [3] (setting [8]), 1000 to 10000 nM.
Regarding `CNCCOc1nc2nc(C)nc(N[C@H](C)c3cccc(C(F)F)c3F)c2cc1C1CCN(C(C)C)CC1` [Compound 404, (R)-N-(1-(3-(difluoromethyl)-2-fluorophenyl)ethyl)-6-(1-isopropylpiperidin-4-yl)-2-methyl-7-(2-(methylamino)ethoxy)pyrido[2,3-d] pyrimidin-4-amine], the IC50 in series [2] (setting [4]) was 1000 to 10000 nM; on SOS1 (setting [6]), under 100 nM; at SOS1 (setting [7]) it was under 50 nM; in series [3] (setting [8]), 1000 to 10000 nM.

(Values after patent US11648254B2 (Kumquat Biosciences Inc., priority 2021, dated 2023).)
